In patent US12195482B1 (Arcus Biosciences, Inc., priority 2022, dated 2025) one finds IC50 data, which are given here for three compounds.

One assay deals with T1, recombinant human MER (Homo sapiens, UniProt Q12866).
T1 construct: purchased Invitrogen
T1 sequence (Q12866 21-999): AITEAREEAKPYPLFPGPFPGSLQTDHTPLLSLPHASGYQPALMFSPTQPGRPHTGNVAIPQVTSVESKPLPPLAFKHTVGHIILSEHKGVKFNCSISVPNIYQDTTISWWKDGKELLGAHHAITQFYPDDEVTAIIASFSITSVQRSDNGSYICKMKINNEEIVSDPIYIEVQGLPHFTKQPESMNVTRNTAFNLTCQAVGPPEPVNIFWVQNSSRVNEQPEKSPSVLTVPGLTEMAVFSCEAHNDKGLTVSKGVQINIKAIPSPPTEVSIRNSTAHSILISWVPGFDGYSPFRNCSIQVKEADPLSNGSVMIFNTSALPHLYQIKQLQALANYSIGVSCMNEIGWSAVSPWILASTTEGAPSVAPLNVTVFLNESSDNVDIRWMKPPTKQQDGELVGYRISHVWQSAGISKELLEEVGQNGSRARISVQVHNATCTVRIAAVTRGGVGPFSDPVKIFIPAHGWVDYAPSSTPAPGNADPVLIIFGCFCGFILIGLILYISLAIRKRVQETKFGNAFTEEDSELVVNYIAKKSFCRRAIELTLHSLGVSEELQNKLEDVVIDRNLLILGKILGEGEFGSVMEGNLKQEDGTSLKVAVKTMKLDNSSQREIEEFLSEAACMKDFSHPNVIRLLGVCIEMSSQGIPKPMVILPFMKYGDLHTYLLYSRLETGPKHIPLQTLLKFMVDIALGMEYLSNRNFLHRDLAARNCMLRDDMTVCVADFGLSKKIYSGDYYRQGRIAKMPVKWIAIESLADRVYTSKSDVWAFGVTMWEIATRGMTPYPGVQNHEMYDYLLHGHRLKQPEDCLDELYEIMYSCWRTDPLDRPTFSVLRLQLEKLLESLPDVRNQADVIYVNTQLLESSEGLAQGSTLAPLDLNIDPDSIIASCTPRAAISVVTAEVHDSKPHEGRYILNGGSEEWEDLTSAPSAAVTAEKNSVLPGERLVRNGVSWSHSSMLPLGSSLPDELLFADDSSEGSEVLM
Nature of the assay: Biochemical potency, HTRF KinEASE-TK kinase assay. Conditions: 1 nM MER, 700 μM ATP. The method, boiled down: (§1)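 Enzyme (AXL 5 nM; TYRO3 or MER 1 nM final) was preincubated with compound for 1 h at RT, then reacted for 2 h at RT with 800 nM biotinylated TK substrate and 700 µM ATP in HEPES pH 7.4, MgCl2, DTT, BSA, 1% DMSO. Percent activity came from the HTRF 665/620 ratio.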
For orientation: Time-resolved FRET reads energy transfer from a long-lived donor to a nearby acceptor.

A further assay addresses T2, recombinant human TYRO3 (Homo sapiens, UniProt Q06418).
T2 construct: purchased Invitrogen
T2 sequence (Q06418 41-890): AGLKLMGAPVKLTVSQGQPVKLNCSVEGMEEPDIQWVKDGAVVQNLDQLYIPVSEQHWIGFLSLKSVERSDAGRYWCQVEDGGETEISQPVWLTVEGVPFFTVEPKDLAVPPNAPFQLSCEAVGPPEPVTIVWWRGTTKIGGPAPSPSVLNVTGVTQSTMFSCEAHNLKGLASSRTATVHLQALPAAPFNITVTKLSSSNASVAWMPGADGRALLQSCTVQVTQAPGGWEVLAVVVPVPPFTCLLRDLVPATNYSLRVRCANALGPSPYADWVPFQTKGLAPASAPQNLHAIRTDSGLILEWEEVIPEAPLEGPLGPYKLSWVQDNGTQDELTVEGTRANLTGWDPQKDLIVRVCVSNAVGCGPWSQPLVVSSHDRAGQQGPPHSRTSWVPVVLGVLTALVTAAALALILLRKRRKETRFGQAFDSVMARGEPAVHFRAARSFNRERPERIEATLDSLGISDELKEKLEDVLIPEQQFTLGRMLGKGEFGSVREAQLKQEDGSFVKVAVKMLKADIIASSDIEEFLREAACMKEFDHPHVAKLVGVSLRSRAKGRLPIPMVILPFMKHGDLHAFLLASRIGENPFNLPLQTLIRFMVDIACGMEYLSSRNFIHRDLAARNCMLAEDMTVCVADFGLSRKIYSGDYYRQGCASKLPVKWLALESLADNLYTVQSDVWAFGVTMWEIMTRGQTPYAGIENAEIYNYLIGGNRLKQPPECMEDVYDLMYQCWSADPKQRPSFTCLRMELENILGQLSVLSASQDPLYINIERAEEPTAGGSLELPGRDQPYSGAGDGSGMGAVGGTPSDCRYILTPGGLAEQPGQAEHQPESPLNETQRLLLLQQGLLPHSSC
Nature of the assay: Biochemical potency, HTRF KinEASE-TK kinase assay. Conditions: 1 nM TYRO3, 700 μM ATP. The method, boiled down:
as §1

One may read the IC50 as the midpoint of a concentration-inhibition curve.

`CCc1cccnc1-c1ccc(-c2c[nH]c3ncc(-c4ccc5c(c4)CC[C@@H](N4C6COCC4C6)CC5)cc23)cc1` [Example 183, 6-[(7S)-2-{3-[4-(3-Ethylpyridin-2-yl)phenyl]-1H-pyrrolo[2,3-b]pyridin-5-yl}-6,7,8,9-tetrahydro-5H-benzo[7]annulen-7-yl]-3-oxa-6-azabicyclo[3.1.1]heptane]: the results for the IC50 at recombinant human MER and on recombinant human TYRO3 were 0.1 to 1 µM and below 0.1 µM, respectively.
As for `Cc1cccnc1-c1ccc(-c2c[nH]c3ncc(-c4ccc5c(c4)CC[C@@H](N[C@H]4CCCOC4)CC5)cc23)cc1` [Example 186, (3S)—N-[(7S)-2-{3-[4-(3-Methylpyridin-2-yl)phenyl]-1H-pyrrolo[2,3-b]pyridin-5-yl}-6,7,8,9-tetrahydro-5H-benzo[7]annulen-7-yl]oxan-3-amine], the IC50 at recombinant human MER and on recombinant human TYRO3 was below 0.1 µM throughout.
For `Cc1cccnc1-c1ccc(-c2c[nH]c3ncc(-c4ccc5c(c4)CC[C@@H](N4C[C@@H]6C[C@H]4CO6)CC5)cc23)cc1` [Example 187, (4S)-5-[(7S)-2-{3-[4-(3-Methylpyridin-2-yl)phenyl]-1H-pyrrolo[2,3-b]pyridin-5-yl}-6,7,8,9-tetrahydro-5H-benzo[7]annulen-7-yl]-2-oxa-5-azabicyclo[2.2.1]heptane], the IC50 at recombinant human MER was 0.1 to 1 µM; at recombinant human TYRO3, below 0.1 µM.
